In publication PMC11219871, “Epigenetic-based differentiation therapy for Acute Myeloid Leukemia” (Nature Communications, 2024):
Read-outs that look alike come from different tables or passages of the source.

Assays:
HL-60 = test: RNA-seq; assay type: cell-based, human
Procedure: (§1) Transcriptomic analyses were performed following low-input 3′ end RNA sequencing approximation for characterization of transcriptional changes in ML-2 and HL-60 samples treated with CM-444 and CM-1758.
(§2) Low-input 3′ end RNA-seq was performed as previously described[53],[54] with minor modifications. Briefly, RNA from 0.1 ×10^6 cells from each experimental condition was purified using a Dynabeads mRNA DIRECT Purification Kit (Thermo Fisher Scientific). For barcoded cDNA generation, polyadenylated RNA was retrotranscribed using an Affinity Script cDNA Synthesis Kit (Agilent Technologies), and barcoded primers also harboring T7 promoter and a partial Read2 sequence for illumine sequencing (CGATTGAGGCCGGTAATACGACTCACTATAGGGGGCGACGTGTGCTCTTCCGATCTXXXXXXNNNNTTTTTTTTTTTTTTTTTTTT, where XXXXXX is the cell barcode and NNN is a unique molecular identifier or UMI, which represents the same initial RNA molecule for future quantification). At this point, the samples were pooled (≤6 samples per pool) at equimolar ratios assessed by q-PCR.
(§3) The samples were then treated with Exonuclease I (Thermo Fisher Scientific following a 1.2x positive SPRI-selection. Second-strand cDNA synthesis was then performed using a NEBNext Ultra II Directional RNA Second-Strand Synthesis Module (New England Biolabs) for 2 h at 16 °C, followed by a 1.4x positive solid-phase reverse immobilization (SPRI) cleanup. The samples were linearly amplified by T7 in vitro transcription using a T7 RNA Polymerase (New England Biolabs) for 16 h at 37 °C. After DNAse treatment (TURBO DNAse I, Thermo Fisher Scientific) for 15 min at 37 °C to remove dsDNA, samples were cleaned with a positive 1.2x SPRI-selection. RNA size, quality, and concentration were determined by analysis with a Qubit Fluorometer (Termo Fisher Scientific) and TapeStation (Agilent 4200 TapeSation System, Agilent Technologies). If necessary, RNA was fragmented in 200- to 300-bp fragments using Zn2+divalent cations followed by a 2x positive SPRI cleanup. Fragmented RNA was dephosphorylated using FastAP Thermosensitive Alkaline Phosphatase (Thermo Fisher Scientific) for 10 min at 37 °C to enhance RNA ligation yield. In this step, a partial Read1 ([…]) sequence for illumine sequencing was ligated to the 3′ end of the fragmented RNA using T4 RNA Ligase I (New England Biolabs). After a 1.5x positive SPRI cleanup, the RNA product was retrotranscribed using an Affinity Script cDNA Synthesis Kit (Agilent Technologies) and a specific retrotranscription primer ([…]). The library was then purified by 1.5x positive SPRI cleanup, and the yield of the previous steps was determined by q-PCR. Finally, PCR using KAPA HiFi HotStar Ready Mix (Kapa Biosystems) was performed for second-strand cDNA synthesis, illumine primers addition (Read1-P5: […] and Read2-P7: […]) and library amplification using the recommended cycle numbers to minimize over-amplification. The product was purified by a 0.7x positive SPRI cleanup. The quality of the final library was determined by q-PCR (based on the threshold cycle, or Ct, obtained for GAPDH (Fw: […], Rv: […]) or GUSB (Fw: […], Rv: […]) housekeeping genes calibrated per individual set of samples, Qubit Fluorometer (Thermo Fisher Scientific) and TapeStation (Agilent 4200 TapeStation System, Agilent Technologies). All libraries were pooled at equimolar ratios and sequenced on a NextSeq500 (Illumina) using 60 bp single-end reads at a minimum sequence depth of 10 million reads per sample.
(§4) Raw reads were demultiplexed using bcl2fastq2 Conversion Software v2.19 (Illumina) to convert base call (BCL) files into FastQ files. The quality control of FastQ files was performed using FastQC (Bioinformatics Babraham Institute). Sequencing reads were aligned to hg19 human reference using Bowtie 2 (Johns Hopkins University) and quantified using quant3p script (github.com/ctlab/quant3p). […]

ML-2 = test: RNA-seq; assay type: cell-based, human
Procedure: as §1, §2, §3, §4

[1] = HL-60, 25% GI50, 12 h, log2FC +/-1
[2] = ML-2, 25% GI50, 12 h, log2FC +/-1

SMILES: COc1cc2nc(-c3cc(C)oc3C)cc(NCC3CCN(c4ncc(C(=O)NO)cn4)CC3)c2cc1OC [CM-1758, 2-[4-[[[2-(2,5-dimethyl-3-furyl)-6,7-dimethoxy-4-quinolyl]amino]methyl] -1-piperidyl]pyrimidine-5-carbohydroxamic acid]
- deregulated genes (RNA-seq) (HL-60): 3299
- down-regulated genes (RNA-seq) (HL-60): 1610
- up-regulated genes (RNA-seq) (HL-60): 1589
- deregulated genes (RNA-seq) (HL-60; [1]): 1278
- down-regulated genes (RNA-seq) (HL-60; [1]): 409
- up-regulated genes (RNA-seq) (HL-60; [1]): 869
- ABI1 Log2FC (HL-60; HL-60, RNA-Seq): 0.03309
- CBFB Log2FC (HL-60; HL-60, RNA-Seq): -0.1665
- CCR2 Log2FC (HL-60; HL-60, RNA-Seq): 0.8564
- CD44 Log2FC (HL-60; HL-60, RNA-Seq): -0.4326
- CDK6 Log2FC (HL-60; HL-60, RNA-Seq): 0.05972
- CEBPB Log2FC (HL-60; HL-60, RNA-Seq): 0.4359
- CSF3R Log2FC (HL-60; HL-60, RNA-Seq): 0.06074
- CTNNBIP1 Log2FC (HL-60; HL-60, RNA-Seq): 1.186
- ELANE Log2FC (HL-60; HL-60, RNA-Seq): -1.7362
- EP300 Log2FC (HL-60; HL-60, RNA-Seq): -0.1778
- FLI1 Log2FC (HL-60; HL-60, RNA-Seq): -0.2831
- FUT4 Log2FC (HL-60; HL-60, RNA-Seq): -1.407
- GATA2 Log2FC (HL-60; HL-60, RNA-Seq): 0.09944
- HCLS1 Log2FC (HL-60; HL-60, RNA-Seq): -0.1237
- ITGA4 Log2FC (HL-60; HL-60, RNA-Seq): -1.197
- ITGAM Log2FC (HL-60; HL-60, RNA-Seq): 2.404
- ITGB1 Log2FC (HL-60; HL-60, RNA-Seq): 0.9626
- ITGB2 Log2FC (HL-60; HL-60, RNA-Seq): 0.07825
- JUN Log2FC (HL-60; HL-60, RNA-Seq): 0.9774
- MPO Log2FC (HL-60; HL-60, RNA-Seq): -2.297
- MYC Log2FC (HL-60; HL-60, RNA-Seq): -2.139
- NFE2 Log2FC (HL-60; HL-60, RNA-Seq): -0.3801
- PIR Log2FC (HL-60; HL-60, RNA-Seq): 1.629
- RUNX1 Log2FC (HL-60; HL-60, RNA-Seq): -0.01075
- SOX4 Log2FC (HL-60; HL-60, RNA-Seq): 0.2112
- SPI1 Log2FC (HL-60; HL-60, RNA-Seq): -0.6241
- TESC Log2FC (HL-60; HL-60, RNA-Seq): -0.09114
- TRIB1 Log2FC (HL-60; HL-60, RNA-Seq): -0.4986
- ZBTB46 Log2FC (HL-60; HL-60, RNA-Seq): 0.4368
- ZFP36L1 Log2FC (HL-60; HL-60, RNA-Seq): 1.334
- deregulated genes (RNA-seq) (ML-2): 3750
- down-regulated genes (RNA-seq) (ML-2): 2024
- up-regulated genes (RNA-seq) (ML-2): 1726
- deregulated genes (RNA-seq) (ML-2; [2]): 2520
- down-regulated genes (RNA-seq) (ML-2; [2]): 1183
- up-regulated genes (RNA-seq) (ML-2; [2]): 1337
- ABI1 Log2FC (ML-2; ML-2, RNA-Seq): 1.097
- CBFB Log2FC (ML-2; ML-2, RNA-Seq): 0.03944
- CCR2 Log2FC (ML-2; ML-2, RNA-Seq): -0.7456
- CD44 Log2FC (ML-2; ML-2, RNA-Seq): 0.03189
- CDK6 Log2FC (ML-2; ML-2, RNA-Seq): -1.439
- CEBPB Log2FC (ML-2; ML-2, RNA-Seq): 0.5234
- CSF3R Log2FC (ML-2; ML-2, RNA-Seq): -1.197
- CTNNBIP1 Log2FC (ML-2; ML-2, RNA-Seq): 0.1531
- ELANE Log2FC (ML-2; ML-2, RNA-Seq): -2.561
- EP300 Log2FC (ML-2; ML-2, RNA-Seq): 0.4661
- FLI1 Log2FC (ML-2; ML-2, RNA-Seq): -0.175
- FUT4 Log2FC (ML-2; ML-2, RNA-Seq): -1.092
- GATA2 Log2FC (ML-2; ML-2, RNA-Seq): 2.602
- HCLS1 Log2FC (ML-2; ML-2, RNA-Seq): -0.435
- ITGA4 Log2FC (ML-2; ML-2, RNA-Seq): -1.164
- ITGAM Log2FC (ML-2; ML-2, RNA-Seq): 1.457
- ITGB1 Log2FC (ML-2; ML-2, RNA-Seq): 0.9913
- ITGB2 Log2FC (ML-2; ML-2, RNA-Seq): -0.1511
- JUN Log2FC (ML-2; ML-2, RNA-Seq): 1.4026
- MPO Log2FC (ML-2; ML-2, RNA-Seq): -2.925
- MYC Log2FC (ML-2; ML-2, RNA-Seq): -2.637
- NFE2 Log2FC (ML-2; ML-2, RNA-Seq): -0.1388
- PIR Log2FC (ML-2; ML-2, RNA-Seq): 0.9099
- RUNX1 Log2FC (ML-2; ML-2, RNA-Seq): 0.04441
- SOX4 Log2FC (ML-2; ML-2, RNA-Seq): 0.5561
- SPI1 Log2FC (ML-2; ML-2, RNA-Seq): -1.467
- TESC Log2FC (ML-2; ML-2, RNA-Seq): -0.171
- TRIB1 Log2FC (ML-2; ML-2, RNA-Seq): -0.1972
- ZBTB46 Log2FC (ML-2; ML-2, RNA-Seq): -0.02647
- ZFP36L1 Log2FC (ML-2; ML-2, RNA-Seq): 4.387
